Values joined by “and” are separate entries in the source; they are usually repeats but may differ in a detail not shown here. Equal entries are not always repeated.
How the values were obtained:
[1] = system: ovariectomized rats; assay: Ex vivo BMD (pQCT) of proximal tibia, 2S(−) 8-PN in ovariectomized rats (Example 3); parameters: species or system Sprague-Dawley rats; conditions: animal study with synthetic relatively pure preparation
Procedure: (§1) The aim of the study was to examine bone and uterine effects of a 4-week treatment with 2S(−) 8-Prenylnaringenin (8-PN) in 3-month-old ovariectomized rats. […] At the end of the study, uterine weight and ex vivo bone mineral density (BMD) of tibia were measured.
(§2) A total of 30 female 13-14-week-old Sprague-Dawley rats were used in the study. The animals were randomized into 5 groups, with 6 rats/group. Group 1 was sham-operated (SHAM) and groups 2-5 were ovariectomized (OVX).
(§3) Treatments with the vehicle or test substance started on the day following operation. […] The animals were sacrificed one day after the last dosing. At the end of the study, left tibiae were excised for ex vivo BMD measurement (pQCT) at proximal tibia and uteri were excised for the determination of absolute and relative weights. In addition, samples for the determination of 2S(−)8-Prenylnaringenin concentration were taken from all dosing solutions on the day when they were prepared and on the last day of use. The data of body weights, relative uterine weights and BMD were analyzed with one-way analysis of variance.
Bone mineral density measurement was carried out by pQCT (XCT-960A, Stratec, Germany). The bone specimens were thawed before measurement. Six 1 mm-thick sections of the proximal tibia (2 mm below the epiphyseal growth plate) were scanned at 0.5 mm intervals using a voxel size of 0.148 mm. Total and trabecular BMD (mg/cm^3) were measured. After bone densitometry, the specimens were wrapped back to saline saturated gauzes and stored at −20° C.

[2] = system: ovariectomized rats; assay: Relative uterine weight, 2S(−) 8-PN in ovariectomized rats (Example 3); format: in vivo, Sprague-Dawley rats
Procedure: as §1, §2, §3
Relative uterine weight was calculated as percentage of body weight

[3] = system: ovariectomized rats; assay: Trabecular density of proximal tibia, 8-PN racemic, 2S(−) 8-PN and estradiol hemihydrate in ovariectomized rats (Example 4); format: in vivo, Sprague-Dawley rats; conditions: OVX rats; s.c. 28 days; 20 mg/kg/d in HP-β-CD
Procedure: (§4) The aim of the study was to directly compare the effects of Prenylnaringenin (racemate) and 2S(−) 8-Prenylnaringenin to the effects of estradiol hemihydrate on bone mineral density and uterine weight on 3-month-old ovariectomized rats using identical formulations. In addition, the effects of estradiolhemihydrate in two vehicles (oily, aqueous) were examined for influence of formulations. The substances were administered subcutaneously(s.c.) seven days a week beginning the day after ovariectomy. At the end of the study, uterine weight and bone mineral density (BMD) of tibia were measured.
(§5) Forty-one female Sprague-Dawley rats, 12-14 weeks of age were randomized into six groups, 6-8 animals in each. Five groups were ovariectomized (OVX) and one group was sham-operated (SHAM). Treatments started on the day following operation and continued for 28 days. The animals were treated s.c. once a day seven times a week as follows. Group 1 (SHAM vehicle group) and group 2 (OVX vehicle group) were given the vehicle 30% hydroxypropyl-β-cyclodextrin (HP-β-CD). Groups 3 and 4 were administered 4 μg/kg/d of estradiol hemihydrate in vehicle benzyl benzoate/ricinus oil (B/R) and in vehicle HP-β-CD, respectively. Groups 5 and 6 were given 20 mg/kg/d of 2S(−)8-Prenylnaringenin and racemic 8-Prenylnaringenin, respectively, both in vehicle HP-β-CD. At the end of the study, left tibiae were excised for the ex vivo BMD […] were taken from all dosing solutions on the first and last day of use.
(§6) Vehicle 1 (used in the groups 1 and 2): 30% hydroxypropyl-β-cyclodextrin and 0.3% NaCl (w/v), 5% ethanol (v/v) in Aqua sterilisata, pH 7.4.
(§7) Vehicle 2 (used when preparing dosing solutions of the groups 4, 5 and 6): 30% hydroxypropyl-β-cyclodextrin and 0.3% NaCl (w/v) in Aqua sterilisata, pH 7.4.
(§8) Vehicle 3 (used when preparing a dosing solution of the group 3): benzyl benzoate/ricinus oil (B/R) 1+4, v/v.

[4] = system: ovariectomized rats; assay: Relative uterus weight, 8-PN racemic, 2S(−) 8-PN and estradiol hemihydrate in ovariectomized rats (Example 4); format: in vivo, Sprague-Dawley rats; conditions: OVX rats
Procedure: as §4, §5, §6, §7, §8

[5] = Body weight, 8-PN racemic, 2S(−) 8-PN and estradiol hemihydrate in ovariectomized rats (Example 4); format: in vivo, Sprague-Dawley rats; conditions: OVX rats; s.c. once a day, 28 days; 20 mg/kg/d in HP-β-CD
Procedure: as §4, §5, §6, §7, §8

[6] = system: ERE-Luc; assay: Estrogenic activity in the estrogen reporter mouse ERE-Luc model, luciferase activity in organs (Example 5); format: in vivo, mice
Procedure: In order to avoid experimental noise male animals were used.
Fourtyfive heterozygous male ERE-Luc mice of two months of age were fed with soy-free diet for two weeks before assigning them to each experimental group then all the mice were injected intraperitoneally (i.p.) with 250 μl of an oily solution containing the following compounds: • 1. Experimental group 1: vehicle • 2. Experimental group 2: 17β-estradiol at 1.5 μg/kg • 3. Experimental group 3: 2S(−)-8-PN at 30 mg/kg • 4. […] Experimental group 5: genistein at 30 mg/kg.
The treatment was carried out in experimental groups of three mice each and repeated three times (therefore numbers reflect the average of […] determinations on a total of 9 animals).
Six hours after the injection, mice were sacrificed by cervical dislocation and organs were dissected and frozen on dry ice. The following organs were analyzed for lucifererase activity by enzymatic assay: prostate, liver, bone, brain.
Data represent means ±standard deviation of N=9 animals per group.
Analysis of variance (ANOVA) for overall comparison was followed by Tukey test for paired comparisons. All statistical procedures were carried out with Systat and SAS (*P<0.05; **P<0.01).

[7] = reported; cited from earlier work
[8] = at the bone loss protective dose; Miyamoto et al 1998; cited from earlier work
[9] = s.c. 28 days, 20 mg/kg/d in HP-β-CD, calculated as percentage of body weight

CC(C)=CCc1c(O)cc(O)c2c1OC(c1ccc(O)cc1)CC2=O (racemic) [8-Prenylnaringenin, 5,7-Dihydroxy-2-(4-hydroxyphenyl)-8-(3-methylbut-2-enyl)-chroman-4-on]
effect on bone loss [1]: prevents bone loss in a dose dependent manner | effect on uterus growth and endometrial stimulation ([2]; animal study with synthetic relatively pure preparation): only a minimal and dose independent effect on uterus growth and endometrial stimulation | effect on uterus proliferation relative to that of estradiol ([2]; doses equi-effective on protection of bone loss): less than ⅕ and 1/10 | estrogenic effect on the uterus, equivalent oral estradiol dose ([2]; extended to women treated with a bone protective dose): 0.1 to 0.2 mg/day | Trabecular density at left proximal tibia, Mean [3]: 351 mg/cm3 | Trabecular density at left proximal tibia, Median [3]: 351 mg/cm3 | effect on the uterus and body weight compared with estradiol in the same vehicle (HP-β-CD) ([4]; 20 mg/kg/d vs estradiol 4 μg/kg/d, same bone effective dose): much lower effect on the uterus and body weight than estradiol at the same bone effective dose | Relative uterus weight, Mean [4, 9]: 0.066 | Relative uterus weight, Median [4, 9]: 0.065 | Body weight at The end (bw4b) [5]: 289(8) g | The change in Body weight (bw4b-bw0) [5]: 27(2) g | estrogenic effect in bone and prostate tissue relative to estradiol ([6]; estimated at dosages leading to the same liver estrogenicity): twofold higher estrogenic effect in bone and prostate tissue than estradiol | Luciferase activity, Prostate ([6]; male ERE-Luc mice, i.p. 30 mg/kg, six hours after the injection, controls 0.5): 0.9 ** arbitrary units | estrogenic activity relative to genistein [7]: at least one order of magnitude higher than that of the isoflavone genistein | effect on uterus growth [8]: significant effect on uterus growth at the bone loss protective dose
